From patent US20090048160A1, “Antimicrobial activity of bovine bactericidal/permeability-increasing protein (BPI)-derived peptides against Gram-negative bacterial mastitis isolates” (priority 2007, published 2009)
Ends that are not written are not given here.

Columns and labels:
Escherichia coli = test: microbe, parasite or virus in culture; format: cell-based
Text: (§1) Bacterial isolates of Escherichia coli, Klebsiella pneumonia, Serratia marcescens, Pseudomonas aeruginosa, Enterobacter cloacae, and Enterobacter aerogenes, which were obtained from clinical cases of bovine mastitis, were used to assess the bactericidal activity of peptides in a broth microdilution assay. Isolates were obtained from repositories at Cornell University (gift of Dr. Y. H. Schukken; Quality Milk Production Services Program, Cornell University, Ithaca N.Y.) and the USDA Beltsville Agricultural Research Center. […] A. J. Bramley, Institute for Animal Health, Compton Laboratory, Newbury, England), which was originally isolated from a clinical case of mastitis ([…]. Dairy Res. 43: 205-211) was also used to assess the bactericidal activity of the peptides in biological fluids. Reference strains of E. coli (ATCC 25922) and Staphylococcus aureus (ATCC 29213) were obtained from a commercial source (American Type Culture Collection (ATCC), Manassas, Va.). To obtain fresh inoculums for evaluation, a sterile loop of each bacterial glycerol stock was streaked on a blood agar plate. After an overnight incubation at 35° C., a single uniform colony was picked and sub-passaged by streaking on a new blood agar plate and incubating the plate overnight at 35° C. To evaluate the antimicrobial activity of the peptides against various clinical mastitis bacterial isolates, the minimum inhibitory concentration (MIC) and the minimum bactericidal concentration (MBC) of these peptides against the isolates were determined using a standardized broth microdilution assay. In addition to the mastitis isolates, E. coli (ATCC 25922) and S. aureus (ATCC 29213) reference strains were evaluated. […] The assays were performed in accordance with Clinical and Laboratory Standards Institute (CLSI) [formerly National Committee for Clinical Laboratory Standards (NCCLS)] guidelines (National Committee for Clinical Laboratory Standards. 1999. Methods for Determining Bacterial Activity of Antimicrobial Agents: Approved Guideline. Wayne, Pa.; National Committee for Clinical Laboratory Standards. 2002. Performance Standards for Antimicrobial Disk and Dilution Susceptibility Tests for Bacteria Isolated from Animals: Approved Standard. 2nd Edition, Wayne, Pa.). […] The bacterial suspension was then diluted 100-fold in cation-adjusted Mueller-Hinton broth to reach a final inoculum concentration of 10^6 CFU/ml. […] A negative control column was included in the plate that included 100 μl of broth alone. The plates were incubated for 18 h at 35° C. with ambient air circulation and without shaking. The wells were subsequently inspected for cloudiness and pellet formation using a magnifying glass plate reader. The lowest concentration at which no pellet or cloudiness was apparent in a given well was identified as the MIC. […] The plates were incubated overnight at 35° C. and colonies subsequently enumerated. The MBC values were determined as the lowest concentration at which ≧99.9% of inoculated bacteria were killed. All assays were performed in triplicate and the MIC and MBC range reported.

Klebsiella pneumoniae = test: microbe, parasite or virus in culture; format: cell-based
Text: as §1

[1] = tested on: bacterial LPS derived from E. coli 0111:B4; test: LPS neutralization, Limulus amebocyte lysate (LAL) assay; format: biochemical; conditions: 1 ng LPS; for inhibition of LPS activity: 30 min
Procedure: FIG. 1 depicts the mean (±S.E.) percent neutralization of bacterial LPS bioactivity as determined with the Limulus amebocyte lysate assay. Increasing concentrations of peptides or polymixin B were incubated with 1 ng of E. coli-derived LPS for 30 min. Following incubation, the amount of free LPS was determined by extrapolation from a standard curve and the percent of bound (neutralized) LPS was calculated.
The ability of the peptides to neutralize LPS was determined using a commercially available Limulus amebocyte lysate (LAL) assay (Cambrex BioScience Walkersville, Inc., Walkersville, Md.). As a positive control, polymyxin B (Sigma Chemical Co.) was evaluated in parallel with the peptides. Increasing concentrations of peptides or polymyxin B were incubated with 1 ng of highly purified bacterial LPS (Sigma Chemical Co.), derived from E. coli 0111:B4, in a 500 μl reaction volume of endotoxin-free water for 30 min at 37° C. while shaking at 100 rpm. Following the incubation, the amount of free LPS was determined in each sample according to the manufacturer's instructions. Briefly, 50 μl of the above mixture was placed into a 96-well microtiter plate and the reaction initiated by the addition of an equal volume of amoebocyte lysate. Following an incubation at 37° C. for 10 min, 100 μl of chromogenic substrate was added and the plate incubated for 5-10 min at 37° C. The reaction was stopped by the addition of 50 μl of glacial acetic acid and the absorbance measured at a wavelength of 405 nm on a microplate reader (Biotec Instruments, Inc., Winooski, Vt.). The amount of non-bound LPS was extrapolated from a standard curve and the percent inhibition calculated according to the following formula: […]
To determine whether the bBPI peptides were able to neutralize LPS, increasing concentrations of the peptides were incubated with LPS (1 ng) and the resulting mixture assayed with the LAL assay (FIG. 1). As a positive and negative control, respectively, polymyxin B and a non-BPI-derived peptide were also assayed. […] In contrast, bBPI142-169 and bBPI90-99,148-161 were able to neutralize ≧93% of LPS activity at peptide concentrations of 30 and 100 μg/ml, respectively.

KWKARKNFIKGSSLGWLIQLFRKR [bBPI90-99,148-161]
MIC and MBC values (Escherichia coli): ≤ 64 µg/mL | MIC and MBC values (Klebsiella pneumoniae): ≤ 64 µg/mL | inhibition of LPS activity ([1]; 1 μg/ml): no inhibition | inhibition of LPS activity ([1]; 30 μg/ml): 74%

NSQIRPLPDKGLDLSIRDASIKIRGKWKARKNFIK [bBPI65-99]
MBC (Escherichia coli): >256 µg/mL | MIC (Escherichia coli): >256 µg/mL | MBC (Klebsiella pneumoniae): >256 µg/mL | MIC (Klebsiella pneumoniae): >256 µg/mL | inhibition of LPS activity ([1]; 1 μg/ml): approximately 20% | maximal inhibition of LPS activity ([1]; within the dose-response range tested): 50%

VRIHISGSSLGWLIQLFRKRIESLLQKS [bBPI142-169]
inhibition of LPS activity ([1]; 1 μg/ml): approximately 20%
